In PMC12621175, “Scaffold Fusion and SAR Transfer with a Chemical Language Model Generates Novel Liver X Receptor Modulators” (Journal of Medicinal Chemistry, 2025):
Entries after “also recorded” stand apart in the source; their conditions may differ.

What was measured:
LXRα = target: T1, LXRα (Homo sapiens, UniProt Q13133); experiment: Gal4-LXRα hybrid reporter gene assay; type: cell-based; details: for classification: applies to LXRa and LXRb; for LXR modulation in Gal4 hybrid reporter gene assays (mode of action): both LXR subtypes (LXRα and LXRβ)
T1 construct: coding for the hinge region, and LBD of the canonical isoform of the respective nuclear receptor; expressed in transfected cells; host or cells: HEK293T
T1 sequence (Q13133 209-447 limits assumed): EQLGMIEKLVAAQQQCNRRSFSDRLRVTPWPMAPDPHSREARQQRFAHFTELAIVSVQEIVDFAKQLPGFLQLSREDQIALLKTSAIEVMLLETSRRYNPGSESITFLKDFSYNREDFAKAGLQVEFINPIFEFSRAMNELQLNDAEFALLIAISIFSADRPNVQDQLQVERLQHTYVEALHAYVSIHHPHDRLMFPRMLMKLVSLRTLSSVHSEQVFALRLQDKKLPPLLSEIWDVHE
Procedure: (§1) The LXR-responsive reporter ABCA1-pGL3 was used for the full-length reporter gene assay.
(§2) The day before transfection, HEK293T cells were seeded in 96-well plates (4 × 10^4 cells/well). Before transfection, the medium was changed to Opti-MEM without any supplements. Transient transfection was carried out using Lipofectamine LTX reagent (Invitrogen) according to the manufacturer’s protocol with (a) pFR-Luc (Stratagene), pRL-SV40 (Promega), and the corresponding Gal4-fusion nuclear receptor plasmid or (b) the LXR-responsive reporter ABCA1-pGL3 and pRL-SV40 (Promega). […] Each concentration was tested in duplicate, and each experiment was repeated in at least three biologically independent repeats. […] Luminescence was measured with a Spark 10 M luminometer (Tecan Deutschland GmbH). Normalization of transfection efficiency and cell growth was done by division of firefly luciferase data by renilla luciferase data multiplied by 1000, resulting in relative light units (RLU). Fold activation was obtained by dividing the mean RLU of the tested compound at a respective concentration by the mean RLU of the untreated 0.1% DMSO control. […] Separate control experiments to exclude nonspecific reporter gene activation or VP16-mediated effects were performed following the same procedure in the absence of a nuclear receptor expression plasmid (pFR-Luc, pRL-SV40, and pECE-SV40-Gal4-VP16 only).

LXRβ = target: T2, LXRβ (Homo sapiens, UniProt P55055); experiment: Gal4-LXRβ hybrid reporter gene assay; type: cell-based
T2 construct: coding for the hinge region, and LBD of the canonical isoform of the respective nuclear receptor; expressed in transfected cells; host or cells: HEK293T
T2 sequence (P55055 222-460 limits assumed): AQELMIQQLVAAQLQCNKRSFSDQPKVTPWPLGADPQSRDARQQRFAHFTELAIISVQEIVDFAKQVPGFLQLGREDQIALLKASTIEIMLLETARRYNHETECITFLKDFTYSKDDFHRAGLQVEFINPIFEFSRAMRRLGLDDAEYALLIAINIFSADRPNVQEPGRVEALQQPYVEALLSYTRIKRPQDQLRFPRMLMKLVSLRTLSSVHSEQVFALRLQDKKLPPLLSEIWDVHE
Procedure: as §1, §2

RORα (NR1F1) = target: T3, RORα (NR1F1) (Homo sapiens, UniProt P35398); experiment: Gal4-RORα hybrid reporter gene assay (off-target profiling); type: cell-based
T3 construct: coding for the hinge region, and LBD of the canonical isoform of the respective nuclear receptor; expressed in transfected cells; host or cells: HEK293T
T3 sequence (P35398 272-510 limits assumed): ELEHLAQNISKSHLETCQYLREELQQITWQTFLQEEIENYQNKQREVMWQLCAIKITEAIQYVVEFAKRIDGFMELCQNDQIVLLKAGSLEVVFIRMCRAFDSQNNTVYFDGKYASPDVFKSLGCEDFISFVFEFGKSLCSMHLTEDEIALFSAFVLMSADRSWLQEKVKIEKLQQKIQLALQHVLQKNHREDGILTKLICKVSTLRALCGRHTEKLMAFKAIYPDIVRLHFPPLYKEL
Text: For the hybrid reporter gene assays, the previously reported Gal4-fusion receptor plasmids pFA-CMV-hRORα-LBD, pFA-CMV-hRORβ-LBD, pFA-CMV-hRORγ-LBD, pFA-CMV-hLXRα-LBD, pFA-CMV-hLXRβ-LBD, pFA-CMV-hFXR-LBD, pFA-CMV-hPXR-LBD, and pFA-CMV-hRXRα-LBD, coding for the hinge region, and LBD of the canonical isoform of the respective nuclear receptor were used. pFR-Luc (Stratagene) was used as the reporter plasmid, and pRL-SV40 (Promega) was used in all assays for the normalization of transfection efficiency and cell growth. pECE-SV40-Gal4-VP16 was a gift from Lea Sistonen (Addgene plasmid #71728). The LXR-responsive reporter ABCA1-pGL3 was used for the full-length reporter gene assay.
The day before transfection, HEK293T cells were seeded in 96-well plates (4 × 10^4 cells/well). Before transfection, the medium was changed to Opti-MEM without any supplements. […] Luminescence was measured with a Spark 10 M luminometer (Tecan Deutschland GmbH). […] EC50/IC50 values and the standard errors thereof were calculated with the mean fold activation values by OriginPro, Version 2025 (OriginLab Corporation, Northampton, MA, USA), fitting a dose–response curve with a variable Hill slope (Levenberg–Marquardt algorithm). […]

SREBP1c = experiment: qPCR of LXR-regulated mRNA expression in HepG2: SREBP1c; type: cell-based, human; details: HepG2, 24 h

| Compound | classification (LXRα) | LXR modulation in Gal4 hybrid reporter gene assays (mode of action) (LXRα) | EC50 (LXRα; classification agonist, read-out: LXRa pEC50/pIC50 (converted)) | EC50 (LXRβ; classification agonist, read-out: LXRb pEC50/pIC50 (converted)) | RORα activity (RORα (NR1F1); off-target profiling, compared with T0901317) | SREBP1c mRNA expression (SREBP1c; 3 μM) | IC50 (LXRα) | IC50 (LXRβ) | RORα activity (RORα (NR1F1); 30 μM) | SREBP1c mRNA expression (SREBP1c; 30 μM) | mrna remaining at 30 µM (SREBP1c; Homo sapiens, 30 μM) |
| --- | --- | --- | --- | --- | --- | --- | --- | --- | --- | --- | --- |
| CCN(C(=O)c1ccccc1)c1ccc(C(O)(C(F)(F)F)C(F)(F)F)cc1 [Compound 1, N-Ethyl-N-(4-[1,1,1,3,3,3-hexafluoro-2-hydroxypropan-2-yl]phenyl)benzamide] | agonist | partial agonists | 562 nM | 589 nM | no activity; also recorded: did not affect | induced | – | – | – | – | – |
| CS(=O)(=O)c1cccc(-c2ccc(CN(Cc3cccc(C(F)(F)F)c3Cl)CC(c3ccccc3)c3ccccc3)cc2)c1 [Compound 3, N-(2-Chloro-3-[trifluoromethyl]benzyl)-N-([3′-{methylsulfonyl}-{1,1′-biphenyl}-4-yl]methyl)-2,2-diphenylethan-1-amine] | antagonist | did not activate LXRs but suppressed LXR activation by the reference agonist T0901317 | – | – | – | – | 7590 nM | 2950 nM | only activated RORα with low efficacy; also recorded: weak RORα activation | repressed SREBP1c expression; also recorded: robustly suppressed SREBP1c | 10% |
